Key:
[1] = test system: A253-CHOP-luc xenografts; experiment: Bioluminescent imaging of A253-CHOP-luc xenografts; format: in vivo, SCID mice; settings: 24 hours after 10 mg/kg (IP)
[2] = Hepatic microsome stability, human; format: in vitro ADME
Source text: The microsomal stability assay is commonly used to rank compounds according to their metabolic stability. This assay addresses the pharmacologic question of how long the parent compound will remain circulating in plasma within the body.

[3] = test system: colorectal cell line DLD1(BAX−/−)(BAK−/−); experiment: ML291 exposure of DLD1(BAX−/−)(BAK−/−) versus wild-type; format: cell-based, human; settings: versus wild-type controls
[4] = test system: UMSCC23; experiment: Proliferation, UMSCC23; format: cell-based; settings: Homo sapiens, 24 hours, average of three experiments
Experimental: (§1) To determine whether ML291 could reduce the proliferation of malignant cells, a panel of OSCC (UMSCC23, A253, HN6, HN12, HN30, H460/T800) and ovarian cancer (RMG-1, TOV112D, A2780 and SKOV3) cell lines, were treated with increasing doses (0.15-20 μM) of ML291 for 24 hours (FIGS. 3A and 3B).

[5] = test system: A253; experiment: Proliferation, A253; format: cell-based; settings: Homo sapiens, 24 hours, average of three experiments
Experimental: as §1

[6] = test system: HN30; experiment: Proliferation, HN30; format: cell-based; settings: 24 hours, average of three experiments
Experimental: as §1

[7] = Tolerability of ML291 in mice; format: in vivo

SMILES: O=C(Nc1ccc(S(=O)(=O)N2CCC(Cl)CC2)cc1)c1ccc([N+](=O)[O-])o1 [ML291, N-(4-((4-chloropiperidin-1-yl)sulfonyl)phenyl)-5-nitrofuran-2-carboxamide]
- luminescence of xenografts [1]: increased luminescence
- Hepatic Microsome Stability (% Remaining after 1 hour @ 37° C.) ([2]; Human): 0.49%
- metabolism in human liver homogenates ([2]; within 1 hour): almost completely metabolized
- ability of BAX/BAK-deleted cells to withstand exposure [3]: significantly more able to withstand ML291 exposure than wild-type controls
- IC50 [4]: 7.31 ± 1.68 µM
- IC50 [5]: 17.2 ± 3.64 µM
- IC50 [6]: 8.95 ± 1.06 µM
- weight, physical appearance, disposition or activity versus controls ([7]; 10 mg/kg IP daily, preliminary): no differences in weight, physical appearance, disposition or activity
- side effects ([7]; 10 mg/kg bi-weekly for four weeks): did not display any obvious side effects
